“And” between values parts separate entries of the source, which are not always exact repeats. Equal values may be shown once.
System: rodent lifetime carcinogenesis bioassay, tumor incidence TD50
Experiment: chronic cancer bioassays in animals – CPDB, compiled studies (AID 1745844)
Conditions: rat, inhaled

C=CCl
TD50 (strain Sprague-Dawley, males, site: extrahepatic tissue, lesion: angiosarcoma, dosed 25 weeks, study length 115 weeks): 468 mg/kg/day | TD50 (strain Sprague-Dawley, males, site: extrahepatic tissue, lesion: angiosarcoma, dosed 52 weeks, study length 123 weeks): 63 mg/kg/day | TD50 (strain Sprague-Dawley, males, site: extrahepatic tissue, lesion: angiosarcoma, dosed 52 weeks, study length 131 weeks): 14900 mg/kg/day | TD50 (strain Sprague-Dawley, males, site: extrahepatic tissue, lesion: angiosarcoma, dosed 52 weeks, study length 139 weeks): 11.7 mg/kg/day | TD50 (strain Sprague-Dawley, males, site: kidney, lesion: nephroblastoma, dosed 25 weeks, study length 139 weeks): 1940 mg/kg/day | TD50 (strain Sprague-Dawley, males, site: kidney, lesion: nephroblastoma, dosed 52 weeks, study length 123 weeks): 37.8 mg/kg/day | TD50 (strain Sprague-Dawley, males, site: kidney, lesion: nephroblastoma, dosed 52 weeks, study length 131 weeks): 2960 mg/kg/day | TD50 (strain Sprague-Dawley, males, site: kidney, lesion: nephroblastoma, dosed 52 weeks, study length 139 weeks): 28.9 mg/kg/day | TD50 (strain Sprague-Dawley, males, site: liver, lesion: angioma, dosed 25 weeks, study length 115 weeks): 580 mg/kg/day | TD50 (strain Sprague-Dawley, males, site: liver, lesion: angioma, dosed 25 weeks, study length 139 weeks): 1030 mg/kg/day | TD50 (strain Sprague-Dawley, males, site: liver, lesion: angioma, dosed 52 weeks, study length 123 weeks): 106 mg/kg/day and 54.3 mg/kg/day | TD50 (strain Sprague-Dawley, males, site: liver, lesion: angiosarcoma, dosed 25 weeks, study length 115 weeks): 871 mg/kg/day | TD50 (strain Sprague-Dawley, males, site: liver, lesion: angiosarcoma, dosed 52 weeks, study length 123 weeks): 76.7 mg/kg/day and 62.4 mg/kg/day | TD50 (strain Sprague-Dawley, males, site: liver, lesion: angiosarcoma, dosed 52 weeks, study length 130 weeks): 90 mg/kg/day | TD50 (strain Sprague-Dawley, males, site: liver, lesion: angiosarcoma, dosed 52 weeks, study length 131 weeks): 875 mg/kg/day | TD50 (strain Sprague-Dawley, males, site: liver, lesion: angiosarcoma, dosed 52 weeks, study length 139 weeks): 75.8 mg/kg/day | TD50 (strain Sprague-Dawley, males, site: liver, lesion: hepatocellular carcinoma, dosed 52 weeks, study length 130 weeks): 40.8 mg/kg/day | TD50 (strain Sprague-Dawley, males, site: liver, lesion: hepatoma, dosed 52 weeks, study length 123 weeks): 152 mg/kg/day | TD50 (strain Sprague-Dawley, males, site: liver, lesion: hepatoma, dosed 52 weeks, study length 131 weeks): 13400 mg/kg/day | TD50 (strain Sprague-Dawley, males, site: liver, lesion: several types, types named in the paper, dosed 52 weeks, study length 130 weeks): 294 mg/kg/day | TD50 (strain Sprague-Dawley, males, site: pituitary gland, lesion: one or several types, types not named, dosed 52 weeks, study length 130 weeks): 138 mg/kg/day | TD50 (strain Wistar, females, site: Zymbal's gland, lesion: squamous-cell carcinoma, dosed 52 weeks, study length 52 weeks): 857 mg/kg/day | TD50 (strain Wistar, females, site: liver, lesion: angiosarcoma, dosed 52 weeks, study length 52 weeks): 209 mg/kg/day | TD50 (strain Wistar, females, site: liver, lesion: hepatocellular carcinoma, dosed 52 weeks, study length 52 weeks): 1810 mg/kg/day | TD50 (strain Wistar, females, site: liver, lesion: neoplastic nodule, dosed 52 weeks, study length 52 weeks): 1810 mg/kg/day | TD50 (strain Wistar, females, site: lung, lesion: papillary adenoma, dosed 52 weeks, study length 52 weeks): 1810 mg/kg/day | TD50 (strain Wistar, females, site: nasal cavity, lesion: olfactory epithelial carcinoma, dosed 52 weeks, study length 52 weeks): 276 mg/kg/day | TD50 (strain Wistar, males, site: Zymbal's gland, lesion: carcinoma, dosed 52 weeks, study length 125 weeks): 3540 mg/kg/day | TD50 (strain Wistar, males, site: Zymbal's gland, lesion: squamous-cell carcinoma, dosed 52 weeks, study length 52 weeks): 330 mg/kg/day | TD50 (strain Wistar, males, site: any site (literature study), lesion: several types, types named in the paper, dosed 52 weeks, study length 78 weeks): 5.44 mg/kg/day | TD50 (strain Wistar, males, site: any site (literature study), lesion: several types, types named in the paper, dosed 52 weeks, study length 125 weeks): 1130 mg/kg/day | TD50 (strain Wistar, males, site: brain, lesion: neuroblastoma, dosed 52 weeks, study length 125 weeks): 4140 mg/kg/day | TD50 (strain Wistar, males, site: brain, lesion: one or several types, types not named, dosed 52 weeks, study length 78 weeks): 5820 mg/kg/day | TD50 (strain Wistar, males, site: extrahepatic tissue, lesion: angioma, dosed 52 weeks, study length 125 weeks): 72700 mg/kg/day | TD50 (strain Wistar, males, site: extrahepatic tissue, lesion: angioma, dosed 52 weeks, study length 127 weeks): 0.37 mg/kg/day | TD50 (strain Wistar, males, site: extrahepatic tissue, lesion: angiosarcoma, dosed 52 weeks, study length 125 weeks): 8490 mg/kg/day | TD50 (strain Wistar, males, site: extrahepatic tissue, lesion: angiosarcoma, dosed 52 weeks, study length 127 weeks): 1.05 mg/kg/day | TD50 (strain Wistar, males, site: kidney, lesion: nephroblastoma, dosed 52 weeks, study length 125 weeks): 4510 mg/kg/day | TD50 (strain Wistar, males, site: liver, lesion: angioma, dosed 52 weeks, study length 125 weeks): 3620 mg/kg/day | TD50 (strain Wistar, males, site: liver, lesion: angioma, dosed 52 weeks, study length 127 weeks): 0.654 mg/kg/day | TD50 (strain Wistar, males, site: liver, lesion: angiosarcoma, dosed 52 weeks, study length 52 weeks): 330 mg/kg/day | TD50 (strain Wistar, males, site: liver, lesion: angiosarcoma, dosed 52 weeks, study length 78 weeks): 10.2 mg/kg/day | TD50 (strain Wistar, males, site: liver, lesion: angiosarcoma, dosed 52 weeks, study length 125 weeks): 518 mg/kg/day | TD50 (strain Wistar, males, site: liver, lesion: hepatocellular carcinoma, dosed 52 weeks, study length 52 weeks): 1140 mg/kg/day | TD50 (strain Wistar, males, site: liver, lesion: hepatoma, dosed 52 weeks, study length 125 weeks): 4860 mg/kg/day | TD50 (strain Wistar, males, site: liver, lesion: hepatoma, dosed 52 weeks, study length 127 weeks): 0.728 mg/kg/day | TD50 (strain Wistar, males, site: lung, lesion: angiosarcoma, dosed 52 weeks, study length 78 weeks): 193 mg/kg/day | TD50 (strain Wistar, males, site: lung, lesion: one or several types, types not named, dosed 52 weeks, study length 78 weeks): 867 mg/kg/day | TD50 (strain Wistar, males, site: nasal cavity, lesion: olfactory epithelial carcinoma, dosed 52 weeks, study length 52 weeks): 533 mg/kg/day | carcinogen call (strain Wistar, males, site: nose, lesion: one or several types, types not named, dosed 52 weeks, study length 78 weeks): positive | TD50 (strain Wistar, males, site: skin, lesion: one or several types, types not named, dosed 52 weeks, study length 78 weeks): 5820 mg/kg/day | carcinogen call (strain Wistar, males, site: testis, lesion: one or several types, types not named, dosed 52 weeks, study length 78 weeks): positive
